Laboratory results from patent publication US20080009418A1, “Selective Inhibitors” (Alchemia LTD., priority 2004, published 2008).

Columns and labels:
Human κ-Opioid (KOP) = target: T1, Human κ-Opioid (KOP) (Homo sapiens, UniProt P41145); assay: Radioligand binding, human κ-opioid (KOP) membranes, filtration, [3H]-Diprenorphine; conditions: compound at 10 μM, [3H]-Diprenorphine
T1 construct: purchased Perkin Elmer Biosignal
How it was run: (§1)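 Percent inhibition of radioligand binding measured on recombinant human membranes: NK1 with [125I]-Substance P, KOP with [3H]-Diprenorphine. Incubation 1 h at room temperature, then harvest onto 0.3% PEI-soaked filters, cold Tris-HCl pH 7.4 washes and scintillation counting; non-specific binding from reference ligand wells.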

Human Melanocortin (MC3) = target: T2, Human Melanocortin (MC3) (Homo sapiens, UniProt P41968); assay: Radioligand binding, human melanocortin MC3 membranes, FlashPlate, [125I]-NDP-αMSH; conditions: compound at 10 μM, [125I]-NDP-αMSH
T2 construct: purchased Perkin Elmer Biosignal
How it was run: (§2)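 Cloned human receptor membranes were coated onto FlashPlate wells and incubated with radioligand and compound (added from a 0.5 mM DMSO daughter plate) for 1 hour at room temperature in the dark. Scintillation counting gave percent inhibition, with DMSO defining total and reference ligand defining non-specific binding.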

[1] = target: T3, Human neuropeptide Y (NPY-Y1) (Homo sapiens, UniProt P25929); assay: Radioligand binding, human neuropeptide Y NPY-Y1 membranes, FlashPlate, [125I]-PYY; conditions: compound at 10 μM, [125I]-PYY
T3 construct: purchased Perkin Elmer Biosignal
T3 sequence (P25929 1-384): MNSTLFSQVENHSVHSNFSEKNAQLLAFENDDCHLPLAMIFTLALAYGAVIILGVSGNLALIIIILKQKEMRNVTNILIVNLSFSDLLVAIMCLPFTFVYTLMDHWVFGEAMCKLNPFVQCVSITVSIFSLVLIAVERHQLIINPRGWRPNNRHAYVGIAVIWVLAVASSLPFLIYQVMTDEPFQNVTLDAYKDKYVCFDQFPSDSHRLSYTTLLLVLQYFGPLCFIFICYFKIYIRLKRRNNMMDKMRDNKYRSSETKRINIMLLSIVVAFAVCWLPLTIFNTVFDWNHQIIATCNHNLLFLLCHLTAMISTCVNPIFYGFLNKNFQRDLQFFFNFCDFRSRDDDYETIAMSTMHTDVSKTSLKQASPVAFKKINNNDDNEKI
How it was run: as §2

Human melanocortin (MC5) = target: T4, Human melanocortin (MC5) (Homo sapiens, UniProt P33032); assay: Radioligand binding, human melanocortin MC5 membranes, FlashPlate, [125I]-NDP-αMSH; conditions: compound at 10 μM, [125I]-NDP-αMSH
T4 construct: purchased Perkin Elmer Biosignal
How it was run: as §2

Human μ-opioid (MOP) = target: T5, Human μ-opioid (MOP) (Homo sapiens, UniProt P35372); assay: Radioligand binding, human μ-opioid (MOP) membranes, FlashPlate, [3H]-Naloxone; conditions: compound at 10 μM, [3H]-Naloxone
T5 construct: purchased Perkin Elmer Biosignal
How it was run: as §2

Human Melanocortin (MC4) = target: T6, Human Melanocortin (MC4) (Homo sapiens, UniProt P32245); assay: Radioligand binding, human melanocortin MC4 membranes, FlashPlate, [125I]-NDP-αMSH; conditions: compound at 10 μM, [125I]-NDP-αMSH
T6 construct: purchased Perkin Elmer Biosignal
How it was run: as §2

Human opioid (ORL1) = target: T7, Human opioid (ORL1) (Homo sapiens, UniProt P41146); assay: Radioligand binding, human opioid ORL1 membranes, FlashPlate, [125I]-Nociceptin; conditions: compound at 10 μM, [125I]-Nociceptin
T7 construct: purchased Perkin Elmer Biosignal
How it was run: as §2

[2] = target: T8, Human melanin-concentrating hormone (MCH1) (Homo sapiens, UniProt Q99705); assay: Radioligand binding, human melanin-concentrating hormone MCH1 membranes, FlashPlate, [125I]-S36057; conditions: compound at 10 μM; for A6: inhibition of radioligand binding, human melanin-concentrating hormone (MCH1): [125I]-S36057
T8 construct: purchased Perkin Elmer Biosignal
How it was run: as §2

Human neurokinin (NK1) = target: T9, Human neurokinin (NK1) (Homo sapiens, UniProt P25103); assay: Radioligand binding, human neurokinin NK1 membranes, filtration, [125I]-Substance P; conditions: compound at 10 μM, [125I]-Substance P
T9 construct: purchased Perkin Elmer Biosignal
How it was run: as §1

Mouse urotensin (mUR2) = target: T10, Mouse urotensin (mUR2) (Mus musculus, UniProt Q8VIH9); assay: Radioligand binding, mouse urotensin mUR2 membranes, FlashPlate, [125I]-Urotensin II; conditions: compound at 10 μM, [125I]-Urotensin II
T10 construct: purchased Perkin Elmer Biosignal
T10 sequence (Q8VIH9 1-385): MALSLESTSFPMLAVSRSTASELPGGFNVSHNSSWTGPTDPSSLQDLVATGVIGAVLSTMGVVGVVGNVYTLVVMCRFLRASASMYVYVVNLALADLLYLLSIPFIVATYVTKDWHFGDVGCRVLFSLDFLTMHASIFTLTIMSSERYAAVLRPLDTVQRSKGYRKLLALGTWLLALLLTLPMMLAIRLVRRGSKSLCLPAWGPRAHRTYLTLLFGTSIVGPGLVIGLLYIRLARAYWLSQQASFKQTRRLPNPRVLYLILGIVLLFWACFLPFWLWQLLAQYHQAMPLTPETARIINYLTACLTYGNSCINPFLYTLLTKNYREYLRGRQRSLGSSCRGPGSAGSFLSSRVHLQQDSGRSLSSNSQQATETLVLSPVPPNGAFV
How it was run: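 Cloned mouse urotensin (mUR2) receptor membranes from Perkin Elmer Biosignal were immobilized in FlashPlate microplates using a proprietary coating. Each well got 19.5 μl buffer, then 0.5 μl of DMSO, reference ligand, or compound. Adding 5 μl of [125I]-Urotensin II, diluted to 5× final concentration in binding buffer, started binding. Plates were sealed with TopSeal-A and incubated 1 hour at room temperature in the dark. Wells were counted for 30 seconds each on a TopCount after a 60-second delay, and percentage inhibition was calculated.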

Human δ-opioid (DOP) = target: T11, Human δ-opioid (DOP) (Homo sapiens, UniProt P41143); assay: Radioligand binding, human δ-opioid (DOP) membranes, FlashPlate, [3H]-Bremazocine; conditions: compound at 10 μM, [3H]-Bremazocine
T11 construct: purchased Perkin Elmer Biosignal
How it was run: as §2

T9 sequence (P25103 whole entry): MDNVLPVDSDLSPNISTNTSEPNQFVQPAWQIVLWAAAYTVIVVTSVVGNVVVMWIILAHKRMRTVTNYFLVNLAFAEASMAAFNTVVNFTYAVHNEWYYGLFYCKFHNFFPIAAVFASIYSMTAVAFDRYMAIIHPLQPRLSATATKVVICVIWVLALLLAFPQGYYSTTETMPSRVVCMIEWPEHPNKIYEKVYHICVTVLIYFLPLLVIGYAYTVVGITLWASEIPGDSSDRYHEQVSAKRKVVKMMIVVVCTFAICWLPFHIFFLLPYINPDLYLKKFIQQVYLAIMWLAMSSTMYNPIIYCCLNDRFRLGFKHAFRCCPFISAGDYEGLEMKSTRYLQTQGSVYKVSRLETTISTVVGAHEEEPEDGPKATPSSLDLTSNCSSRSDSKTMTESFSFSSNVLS
T4 sequence (P33032 whole entry): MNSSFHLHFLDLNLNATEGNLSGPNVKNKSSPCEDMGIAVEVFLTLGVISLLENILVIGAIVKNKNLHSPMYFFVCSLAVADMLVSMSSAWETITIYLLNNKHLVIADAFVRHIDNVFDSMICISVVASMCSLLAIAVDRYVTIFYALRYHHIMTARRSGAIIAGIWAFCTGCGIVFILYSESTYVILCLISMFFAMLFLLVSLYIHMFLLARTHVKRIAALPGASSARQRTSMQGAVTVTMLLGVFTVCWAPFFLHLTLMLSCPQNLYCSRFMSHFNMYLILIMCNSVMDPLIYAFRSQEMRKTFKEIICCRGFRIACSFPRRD
T11 sequence (P41143 whole entry): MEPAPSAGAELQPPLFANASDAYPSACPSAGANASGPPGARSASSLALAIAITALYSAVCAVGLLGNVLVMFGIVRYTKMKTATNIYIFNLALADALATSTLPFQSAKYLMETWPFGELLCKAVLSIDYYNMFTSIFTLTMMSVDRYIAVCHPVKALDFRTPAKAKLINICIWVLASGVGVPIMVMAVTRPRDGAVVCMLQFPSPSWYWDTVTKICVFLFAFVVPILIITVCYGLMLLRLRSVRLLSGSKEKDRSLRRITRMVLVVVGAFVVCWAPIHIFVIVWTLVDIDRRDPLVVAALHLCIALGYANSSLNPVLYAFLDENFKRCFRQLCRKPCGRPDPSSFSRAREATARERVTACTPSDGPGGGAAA
T1 sequence (P41145 whole entry): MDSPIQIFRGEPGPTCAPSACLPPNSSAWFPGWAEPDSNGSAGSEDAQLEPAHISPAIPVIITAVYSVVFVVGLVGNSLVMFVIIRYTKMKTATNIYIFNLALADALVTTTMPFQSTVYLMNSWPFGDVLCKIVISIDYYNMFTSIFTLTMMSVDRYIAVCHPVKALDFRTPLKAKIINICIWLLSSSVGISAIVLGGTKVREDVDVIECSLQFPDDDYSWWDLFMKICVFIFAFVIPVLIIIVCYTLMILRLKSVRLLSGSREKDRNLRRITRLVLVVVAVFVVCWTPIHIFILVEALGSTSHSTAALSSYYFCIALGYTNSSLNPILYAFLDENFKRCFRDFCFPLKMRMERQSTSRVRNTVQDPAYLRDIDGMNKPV
T8 sequence (Q99705 whole entry): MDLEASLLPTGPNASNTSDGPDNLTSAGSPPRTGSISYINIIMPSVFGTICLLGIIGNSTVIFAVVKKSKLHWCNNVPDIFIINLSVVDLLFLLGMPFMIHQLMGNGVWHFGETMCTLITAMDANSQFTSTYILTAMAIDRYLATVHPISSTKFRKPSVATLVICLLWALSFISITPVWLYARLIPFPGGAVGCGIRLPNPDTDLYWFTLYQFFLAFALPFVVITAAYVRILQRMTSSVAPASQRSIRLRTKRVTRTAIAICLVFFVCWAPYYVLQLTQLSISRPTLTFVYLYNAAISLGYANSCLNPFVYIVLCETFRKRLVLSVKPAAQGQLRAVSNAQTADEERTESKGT
T7 sequence (P41146 whole entry): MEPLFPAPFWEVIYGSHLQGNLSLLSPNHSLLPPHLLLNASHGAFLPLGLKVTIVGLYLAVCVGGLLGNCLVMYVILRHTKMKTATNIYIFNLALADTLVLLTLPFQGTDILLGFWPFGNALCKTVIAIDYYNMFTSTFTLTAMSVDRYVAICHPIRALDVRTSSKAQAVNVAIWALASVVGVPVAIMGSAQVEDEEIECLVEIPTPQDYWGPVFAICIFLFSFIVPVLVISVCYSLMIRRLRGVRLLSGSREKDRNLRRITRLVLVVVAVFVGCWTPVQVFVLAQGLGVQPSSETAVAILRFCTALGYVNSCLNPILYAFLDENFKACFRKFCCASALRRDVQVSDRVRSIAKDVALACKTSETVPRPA
T2 sequence (P41968 whole entry): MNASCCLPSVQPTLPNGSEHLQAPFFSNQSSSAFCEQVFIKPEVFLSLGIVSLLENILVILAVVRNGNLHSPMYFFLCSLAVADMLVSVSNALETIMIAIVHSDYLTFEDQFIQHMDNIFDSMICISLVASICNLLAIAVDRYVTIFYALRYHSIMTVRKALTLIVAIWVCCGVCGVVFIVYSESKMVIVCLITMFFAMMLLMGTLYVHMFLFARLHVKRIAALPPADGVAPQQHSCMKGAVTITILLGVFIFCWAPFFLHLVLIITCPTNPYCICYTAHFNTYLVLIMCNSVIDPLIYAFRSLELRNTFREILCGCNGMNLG
T6 sequence (P32245 whole entry): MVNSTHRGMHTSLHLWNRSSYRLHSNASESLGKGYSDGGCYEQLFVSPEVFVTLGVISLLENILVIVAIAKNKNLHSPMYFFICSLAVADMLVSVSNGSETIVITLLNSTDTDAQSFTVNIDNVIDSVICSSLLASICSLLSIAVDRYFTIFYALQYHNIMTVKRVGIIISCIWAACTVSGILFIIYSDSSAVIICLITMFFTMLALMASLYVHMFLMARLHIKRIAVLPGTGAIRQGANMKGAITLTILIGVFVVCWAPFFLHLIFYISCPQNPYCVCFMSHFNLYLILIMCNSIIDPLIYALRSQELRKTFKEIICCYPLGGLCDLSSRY
T5 sequence (P35372 whole entry): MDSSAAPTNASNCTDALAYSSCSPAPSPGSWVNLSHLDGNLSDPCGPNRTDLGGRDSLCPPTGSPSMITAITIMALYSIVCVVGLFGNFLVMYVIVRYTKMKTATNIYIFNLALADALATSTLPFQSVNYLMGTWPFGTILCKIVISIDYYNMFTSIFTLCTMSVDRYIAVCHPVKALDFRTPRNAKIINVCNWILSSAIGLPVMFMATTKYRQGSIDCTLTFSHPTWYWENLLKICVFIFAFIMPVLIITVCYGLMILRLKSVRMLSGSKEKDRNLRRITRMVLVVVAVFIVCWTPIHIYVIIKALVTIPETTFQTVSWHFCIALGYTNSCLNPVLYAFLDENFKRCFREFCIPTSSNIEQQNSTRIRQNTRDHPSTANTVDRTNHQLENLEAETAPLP

Compound	A2: inhibition of radioligand binding (Human κ-Opioid (KOP); human KOP membranes)	A3: inhibition of radioligand binding (Human Melanocortin (MC3); human MC3 membranes)	A9: inhibition of radioligand binding ([1]; human NPY-Y1 membranes)	A4: inhibition of radioligand binding (Human Melanocortin (MC4); human MC4 membranes)	A8: inhibition of radioligand binding (Human neurokinin (NK1); human NK1 membranes)	A11: inhibition of radioligand binding (Mouse urotensin (mUR2); mouse mUR2 membranes)	A1: inhibition of radioligand binding (Human δ-opioid (DOP); human DOP membranes)	A2: inhibition of radioligand binding, human κ-opioid (KOP) (Human κ-Opioid (KOP))	A9: inhibition of radioligand binding, human neuropeptide Y (NPY-Y1) [1]	A5: inhibition of radioligand binding, human melanocortin (MC5) (Human melanocortin (MC5))	A4: inhibition of radioligand binding, human melanocortin (MC4) (Human Melanocortin (MC4))	A10: inhibition of radioligand binding, human opioid (ORL1) (Human opioid (ORL1))	A8: inhibition of radioligand binding, human neurokinin (NK1) (Human neurokinin (NK1))	A11: inhibition of radioligand binding, mouse urotensin (mUR2) (Mouse urotensin (mUR2))	A1: inhibition of radioligand binding, human δ-opioid (DOP) (Human δ-opioid (DOP))	also measured
COCC1OC(OCCc2ccccc2)C(NC(=O)CCCN)C(OCc2ccc3ccccc3c2)C1O (stereo not shown) [compound 228]	–	–	–	–	–	–	–	–	–	–	–	–	–	–	–	A2: inhibition of radioligand binding (Human κ-Opioid (KOP); filtration): − (“−” indicates less than 50% inhibition at 10 μM); A3: inhibition of radioligand binding (Human Melanocortin (MC3); FlashPlate): − (“−” indicates less than 50% inhibition at 10 μM); A9: inhibition of radioligand binding ([1]; FlashPlate): − (“−” indicates less than 50% inhibition at 10 μM); A5: inhibition of radioligand binding (Human melanocortin (MC5); FlashPlate): + (“+” indicates greater than 50% inhibition at 10 μM); A7: inhibition of radioligand binding (Human μ-opioid (MOP); FlashPlate): − (“−” indicates less than 50% inhibition at 10 μM); A4: inhibition of radioligand binding (Human Melanocortin (MC4); FlashPlate): − (“−” indicates less than 50% inhibition at 10 μM); A10: inhibition of radioligand binding (Human opioid (ORL1); FlashPlate): − (“−” indicates less than 50% inhibition at 10 μM); A6: inhibition of radioligand binding ([2]; [125I]-S36057, FlashPlate): − (“−” indicates less than 50% inhibition at 10 μM); A8: inhibition of radioligand binding (Human neurokinin (NK1); filtration): + (“+” indicates greater than 50% inhibition at 10 μM); A11: inhibition of radioligand binding (Mouse urotensin (mUR2); FlashPlate): − (“−” indicates less than 50% inhibition at 10 μM); A1: inhibition of radioligand binding (Human δ-opioid (DOP); FlashPlate): − (“−” indicates less than 50% inhibition at 10 μM)
NCCC(=O)NC1C(OCc2ccc(Cl)cc2)OC(COCc2ccccc2)C(O)C1OCc1ccc(Cl)cc1 (single isomer, unassigned) [compound 474]	− (“−” indicates less than 50% inhibition at 10 μM)	− (“−” indicates less than 50% inhibition at 10 μM)	− (“−” indicates less than 50% inhibition at 10 μM)	− (“−” indicates less than 50% inhibition at 10 μM)	+ (“+” indicates greater than 50% inhibition at 10 μM)	− (“−” indicates less than 50% inhibition at 10 μM)	− (“−” indicates less than 50% inhibition at 10 μM)	–	–	–	–	–	–	–	–	A5: inhibition of radioligand binding (Human melanocortin (MC5); human MC5 membranes, 10 µM): − (“−” indicates less than 50% inhibition at 10 μM); A7: inhibition of radioligand binding (Human μ-opioid (MOP); human MOP membranes, 10 µM): − (“−” indicates less than 50% inhibition at 10 μM); A10: inhibition of radioligand binding (Human opioid (ORL1); human ORL1 membranes, 10 µM): + (“+” indicates greater than 50% inhibition at 10 μM); A6: inhibition of radioligand binding ([2]; [125I]-S36057, human MCH1 membranes, 10 µM): − (“−” indicates less than 50% inhibition at 10 μM)
N=C(N)NCC(=O)NC1C(OCc2ccc(Cl)cc2)OC(COCc2ccccc2)C(O)C1OCc1ccc(Cl)cc1 (stereo not shown) [compound 418]	− (“−” indicates less than 50% inhibition at 10 μM)	+ (“+” indicates greater than 50% inhibition at 10 μM)	− (“−” indicates less than 50% inhibition at 10 μM)	+ (“+” indicates greater than 50% inhibition at 10 μM)	+ (“+” indicates greater than 50% inhibition at 10 μM)	− (“−” indicates less than 50% inhibition at 10 μM)	− (“−” indicates less than 50% inhibition at 10 μM)	–	–	–	–	–	–	–	–	A5: inhibition of radioligand binding (Human melanocortin (MC5); human MC5 membranes): + (“+” indicates greater than 50% inhibition at 10 μM); A7: inhibition of radioligand binding (Human μ-opioid (MOP); human MOP membranes): − (“−” indicates less than 50% inhibition at 10 μM); A10: inhibition of radioligand binding (Human opioid (ORL1); human ORL1 membranes): + (“+” indicates greater than 50% inhibition at 10 μM); A6: inhibition of radioligand binding ([2]; [125I]-S36057, human MCH1 membranes): + (“+” indicates greater than 50% inhibition at 10 μM)
NCCCC(=O)NC1C(OCc2ccc(Cl)cc2)OC(COCc2ccc3ccccc3c2)C(O)C1OCc1ccccc1 (single isomer, unassigned) [compound 502]	–	–	–	–	–	–	–	− (“−” indicates less than 50% inhibition at 10 μM)	− (“−” indicates less than 50% inhibition at 10 μM)	+ (“+” indicates greater than 50% inhibition at 10 μM)	+ (“+” indicates greater than 50% inhibition at 10 μM)	+ (“+” indicates greater than 50% inhibition at 10 μM)	+ (“+” indicates greater than 50% inhibition at 10 μM)	− (“−” indicates less than 50% inhibition at 10 μM)	− (“−” indicates less than 50% inhibition at 10 μM)	A3: inhibition of radioligand binding, human melanocortin (MC3) (Human Melanocortin (MC3); 10 µM): − (“−” indicates less than 50% inhibition at 10 μM); A7: inhibition of radioligand binding, human μ-opioid (MOP) (Human μ-opioid (MOP); 10 µM): + (“+” indicates greater than 50% inhibition at 10 μM); A6: inhibition of radioligand binding, human melanin-concentrating hormone (MCH1) ([2]; 10 µM): + (“+” indicates greater than 50% inhibition at 10 μM)
CSC1OC(COCc2ccc3ccccc3c2)C(O)C(OCc2ccc3ccccc3c2)C1NC(=O)CCN (stereo not shown) [compound 318]	–	–	–	–	–	–	–	− (“−” indicates less than 50% inhibition at 10 μM)	− (“−” indicates less than 50% inhibition at 10 μM)	+ (“+” indicates greater than 50% inhibition at 10 μM)	− (“−” indicates less than 50% inhibition at 10 μM)	− (“−” indicates less than 50% inhibition at 10 μM)	+ (“+” indicates greater than 50% inhibition at 10 μM)	− (“−” indicates less than 50% inhibition at 10 μM)	− (“−” indicates less than 50% inhibition at 10 μM)	A3: inhibition of radioligand binding, human melanocortin (MC3) (Human Melanocortin (MC3)): − (“−” indicates less than 50% inhibition at 10 μM); A7: inhibition of radioligand binding, human μ-opioid (MOP) (Human μ-opioid (MOP)): − (“−” indicates less than 50% inhibition at 10 μM); A6: inhibition of radioligand binding, human melanin-concentrating hormone (MCH1) [2]: − (“−” indicates less than 50% inhibition at 10 μM)
